These results are taken from patent US20040029928A1, “Novel propenohydroxamic acid derivatives” (priority 2000, published 2004).

In one series the target is T1, TACE (crude extracted protein from membrane fraction of THP-1 cells) (Homo sapiens, UniProt P78536).
T1 construct: The supernatant was collected, which was provided for use as a TACE crude extract; endogenous in cells; host or cells: THP-1 cells stimulated with LPS, silica and hydroxyurea; membrane fraction solubilised with 1% Triton X-100
T1 sequence (P78536 215-824): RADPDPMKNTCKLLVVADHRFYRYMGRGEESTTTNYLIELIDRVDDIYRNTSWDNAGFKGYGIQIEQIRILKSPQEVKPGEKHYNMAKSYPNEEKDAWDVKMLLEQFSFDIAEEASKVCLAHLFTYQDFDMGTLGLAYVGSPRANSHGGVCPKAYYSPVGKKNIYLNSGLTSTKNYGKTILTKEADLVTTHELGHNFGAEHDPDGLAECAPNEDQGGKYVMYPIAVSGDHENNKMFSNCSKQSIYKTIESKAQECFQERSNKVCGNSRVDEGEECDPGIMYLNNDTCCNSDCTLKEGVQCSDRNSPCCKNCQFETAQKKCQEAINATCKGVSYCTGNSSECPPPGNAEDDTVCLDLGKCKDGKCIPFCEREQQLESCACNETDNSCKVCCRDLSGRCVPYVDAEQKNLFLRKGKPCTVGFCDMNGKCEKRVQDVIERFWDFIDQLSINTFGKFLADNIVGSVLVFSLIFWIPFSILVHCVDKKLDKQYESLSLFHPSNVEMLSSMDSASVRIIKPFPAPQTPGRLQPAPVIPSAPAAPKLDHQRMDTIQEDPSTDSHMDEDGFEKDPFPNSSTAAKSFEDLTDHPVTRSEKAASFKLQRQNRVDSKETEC
Nature of the series: In vitro TACE inhibitory activity (fluorogenic peptide substrate). Type of series: biochemical. Particulars: crude TACE 10 μg/mL, substrate 20 μM, room temperature, at least 4 hours. As for the experimental part: Test 1 (In Vitro TACE Inhibitory Activity)
(1) Crude Extraction of TACE from THP-1 Cell Membrane
To THP-1 cells (cell density: 2×10^6/mL) suspended in RPMI 1640 medium containing 1% FBS were added LPS (E. coli 055:B55, final concentration: 1 pg/mL), silica (0.014 μm, final concentration: 50 μg/mL) and hydroxyurea (final concenration: 2 mM), followed by cultivation at 37° C. for 16 hours under 5%-CO2 conditions. The resulting cells were then washed once with RPMI 1640 medium free of FBS. The cells were suspended in 3 times the pellet volume of Solution A (10 mM sodium phosphate (pH 7.4), 1 mM MgCl2, 30 mM NaCl, 0.02% NaN3, 5 μM PMSF (phenyl methyl sulfonyl fluoride)). The cells were ground by a Polytron homogenizer (5 sec×5 times, ice cooling for 1 to 2 minutes each time). The homogenate solution was stacked over 41% sucrose-Solution A, followed by centrifugation (150,000 g×1 hour). After centrifugation, the intermediate layer was collected and diluted with 4 volumes of Solution A, followed by centrifugation (150,000 g×20 min). A sufficient amount of a solubilizing solution (1%-Triton X-100-A solution) was added (protein concentration: 1 mg/mL) and the mixture was stirred (4° C.×1 hour). Stirring was followed by centrifugation (100,000 g×30 min, 4° C.). The supernatant was collected, which was provided for use as a TACE crude extract.
(2) Measurement of TACE Inhibitory Activity
TACE (crude extracted protein from membrane fraction of THP-1 cells, final concentration: 10 μg/mL), each of test compounds (DMSO final concentration: 1%) shown in Table 1 and an incubate solution (50 mM Tris-HCl (pH 7.4), 5 mM CaCl2, 0.002% NaN3, 0.002% Brij 35) was added to a 96-well black plate. After pre-incubation at room temperature for 30 minutes, a substrate (N-methylanthranilyl-LAQAVRSK(DNP)rr-NH2: product of PEPTIDE INSTITUTE, INC., final concentration: 20 μM) was added, followed by incubation at room temperature for at least 4 hours. The fluorescence intensity was measured using POLAR STAR (Ex: 340 nm, Em: 430 nm) and from it, TACE inhibitory activity (IC50 value) was calculated.
Regarding `COc1ccc(S(=O)(=O)N(C)c2cccc(/C(=C\C(=O)NO)c3ccccc3)c2)cc1` [Compound 62, Z-3-[3-[N-(4-Methoxybenzenesulfonyl)-N-methylamino]phenyl]-3-phenylpropenohydroxamic Acid], the concentration for half-maximal inhibition (IC50) (as a rule, the concentration needed to halve the response being measured) turned out to be 8.6 nM.

Another series deals with T2, MMP-1 (Homo sapiens, UniProt P03956).
T2 construct: purchased Cosmo Bio Co
T2 sequence (P03956 100-469): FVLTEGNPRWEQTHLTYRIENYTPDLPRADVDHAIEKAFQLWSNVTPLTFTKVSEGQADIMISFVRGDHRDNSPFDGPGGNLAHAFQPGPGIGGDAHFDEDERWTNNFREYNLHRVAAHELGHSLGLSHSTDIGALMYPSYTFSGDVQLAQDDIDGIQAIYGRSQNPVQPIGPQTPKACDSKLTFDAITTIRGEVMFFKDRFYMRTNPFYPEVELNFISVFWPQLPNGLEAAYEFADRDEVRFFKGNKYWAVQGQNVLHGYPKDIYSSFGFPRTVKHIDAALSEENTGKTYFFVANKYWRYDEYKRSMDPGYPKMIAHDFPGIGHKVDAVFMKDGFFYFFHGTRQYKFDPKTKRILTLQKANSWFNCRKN
Nature of the series: Measurement of MMP-1 inhibitory activity. Type of series: biochemical. Particulars: MMP-1 (Cosmo Bio), fluorogenic substrate. As for the experimental part: Test 2 (Measurement of MMP-1 Inhibitory Activity)
MMP-1 inhibitory activity (IC50 value) was measured in accordance with the above-described measuring method of TACE inhibitory activity by using MMP-1 (product of Cosmo Bio Co.) and, as a substrate, 7-methoxycoumarin-4-yl-acetyl-PLGL-[N^3-(2,4-dinitrophenyl)2,3-diaminopropionyl]-AR—NH2 (product of Peptide Institute Inc.). The fluorescence intensity was measured using POLAR STAR (Ex: 340 nm, Em: 405 nm).
Molecule `COc1ccc(S(=O)(=O)N(C)c2cccc(/C(=C\C(=O)NO)c3ccccc3)c2)cc1` [Compound 62, Z-3-[3-[N-(4-Methoxybenzenesulfonyl)-N-methylamino]phenyl]-3-phenylpropenohydroxamic Acid] had an IC50 greater than 10000 nM.

Tested on in a further series: not given
Assay: not given
Conditions: not given
With `O=C(/C=C(/c1ccccc1)c1cccc(NS(=O)(=O)N2CCCCC2)c1)NO` [Compound 26, Z-3-[3-(1-Piperidinesulfonylamino)phenyl]-3-phenylpropenohydroxamic Acid], the melting point (as a rule, the temperature of the solid-liquid transition) is 158 to 159 °C.
Consider `O=C(/C=C(/c1ccccc1)c1cccc(NS(=O)(=O)c2cccc3ccccc23)c1)NO` [Compound 27, Z-3-[3-(1-Naphthalenesulfonylamino)phenyl]-3-phenylpropenohydroxamic Acid], for which the melting point fell in the range of 160 to 163 °C.
Still for that read-out and setting: next, `CN(C)c1cccc2c(S(=O)(=O)Nc3cccc(/C(=C\C(=O)NO)c4ccccc4)c3)cccc12` [Compound 30, Z-3-[3-[5-(Dimethylamino)-1-naphthalenesulfonylamino)phenyl]-3-phenylpropenohydroxamic Acid]: 123 to 125 °C; `O=C(/C=C(/c1ccccc1)c1ccc(NS(=O)(=O)c2ccc([N+](=O)[O-])cc2)cc1)NO` [Compound 35, Z-3-[4-(4-Nitrobenzenesulfonylamino)phenyl]-3-phenylpropenohydroxamic Acid]: 146 to 148 °C; `O=C(/C=C(/c1ccccc1)c1cc(NS(=O)(=O)c2ccc3ccccc3c2)ccc1Cl)NO` [Compound 36, Z-3-[2-Chloro-5-(2-naphthalenesulfonylamino)phenyl]-3-phenylpropenohydroxamic Acid]: 173 to 175 °C.
`COc1ccc(S(=O)(=O)Nc2ccc(Cl)c(/C(=C\C(=O)NO)c3ccccc3)c2)cc1OC` [Compound 37, Z-3-[2-Chloro-5-(3,4-dimethoxybenzenesulfonylamino)phenyl]-3-phenylpropenohydroxamic Acid] had a melting point of 127 to 130 °C.
The same measure, in the same setting: next, `COc1ccc(C(=O)Nc2cccc(C(=CC(=O)NO)c3cccc(NC(=O)c4ccc(OC)cc4)c3)c2)cc1` [Compound 39, 3,3-bis[3-(4-Methoxybenzoylamino)phenyl]propenohydroxamic Acid]: 198 to 200 °C.
Still for that read-out and setting: next, `O=C(C=C(c1cccc(NS(=O)(=O)c2ccc(Br)cc2)c1)c1cccc(NS(=O)(=O)c2ccc(Br)cc2)c1)NO` [Compound 40, 3,3-bis [3-(4-Bromobenzenesulfonylamino)phenyl]propenohydroxamic Acid]: 137 to 141 °C; `COc1ccc(S(=O)(=O)Nc2cccc(C(=CC(=O)NO)c3cccc(NS(=O)(=O)c4ccc(OC)c(OC)c4)c3)c2)cc1OC` [Compound 44, 3,3-bis[3-(3,4-Dimethoxybenzenesulfonylamino)phenyl]propenohydroxamic Acid]: 132 to 135 °C.
On the same count and under the same terms, the figure for `O=C(C=C(c1cccc(NS(=O)(=O)c2ccc3ccccc3c2)c1)c1cccc(NS(=O)(=O)c2ccc3ccccc3c2)c1)NO` [Compound 45, 3,3-bis[3-(2-Naphthalenesulfonylamino)phenyl]propenohydroxamic Acid] is 128 to 131 °C; for `O=C(C=C(c1cccc(NS(=O)(=O)c2cccc3cccnc23)c1)c1cccc(NS(=O)(=O)c2cccc3cccnc23)c1)NO` [Compound 46, 3,3-bis[3-(8-Quinolinesulfonylamino)phenyl]propenohydroxamic Acid] it is 152 to 156 °C; for `O=C(NO)C(F)=C(c1cccc(NS(=O)(=O)c2cccc3cccnc23)c1)c1cccc(NS(=O)(=O)c2cccc3cccnc23)c1` [Compound 49, 2-Fluoro-3,3-bis[3-(8-quinolinesulfonylamino)phenyl]propenohydroxamic Acid] it is 150 to 153 °C.
For the molecule `COc1ccc(C(=O)Nc2cccc(/C(=C\C(=O)NO)c3ccccc3)c2)cc1` [Compound 53, Z-3-[3-(4-Methoxybenzoylamino)phenyl]-3-phenylpropenohydroxamic Acid], the melting point was in the range of 134 to 137 °C.
Same read-out and setting: the figure for `COc1ccc(S(=O)(=O)Nc2ccc(/C(=C\C(=O)NO)c3ccccc3)cc2)cc1` [Compound 54, Z-3-[4-(4-Methoxybenzenesulfonylamino)phenyl]-3-phenylpropenohydroxamic Acid] is 188 to 191 °C; for `COc1ccc(NC(=O)Nc2cccc(/C(=C\C(=O)NO)c3ccccc3)c2)cc1` [Compound 57, Z-3-[3-[3-(4-Methoxyphenyl)ureido]phenyl]-3-phenylpropenohydroxamic Acid] it is 190 to 192 °C.
Still for that read-out and setting: the figure for `COc1ccc(NC(=S)Nc2cccc(/C(=C\C(=O)NO)c3ccccc3)c2)cc1` [Compound 58, Z-3-[3-[3-(4-Methoxyphenyl)thioureido]phenyl]-3-phenylpropenohydroxamic Acid] is 176 to 179 °C.
On to `O=C(/C=C(/c1ccccc1)c1cccc(N(Cc2ccccc2)S(=O)(=O)c2ccc3ccccc3c2)c1)NO` [Compound 65, Z-3-[3-[N-(2-Naphthalenesulfonyl)-N-benzylamino]phenyl]-3-phenylpropenohydroxamic Acid], for which the melting point is 88 to 90 °C.
Regarding `O=C(/C=C(/c1ccccc1)c1cccc(N(CCc2ccccc2)S(=O)(=O)c2ccc3ccccc3c2)c1)NO` [Compound 66, Z-3-[3-[N-(2-Naphthalenesulfonyl)-N-(2-phenylethyl)amino]phenyl]-3-phenylpropenohydroxamic Acid], the melting point lay within 127 to 129 °C.
`O=C(/C=C(/c1ccccc1)c1cccc(N(Cc2cccnc2)S(=O)(=O)c2ccc3ccccc3c2)c1)NO` [Compound 67, Z-3-[3-[N-(2-Naphthalenesulfonyl)-N-(3-pyridylmethyl)amino]phenyl]-3-phenylpropenohydroxamic Acid]: the melting point lay within 168 to 170 °C.
`CN(C)c1cccc2c(S(=O)(=O)N(C)c3cccc(/C(=C\C(=O)NO)c4ccccc4)c3)cccc12` [Compound 74, Z-3-[3-[N-(5-(Dimethylamino)-1-naphthalenesulfonyl)-N-methylamino]phenyl]-3-phenylpropenohydroxamic acid] gave a melting point of 96 to 99 °C.
Same read-out and setting: the figure for `COc1ccc(OC)c(S(=O)(=O)N(C)c2cccc(/C(=C\C(=O)NO)c3ccccc3)c2)c1` [Compound 76, Z-3-[3-[N-(2,5-Dimethoxybenzenesulfonyl)-N-methylamino]phenyl]-3-phenylpropenohydroxamic acid] is 151 to 153 °C; for `COc1ccc(S(=O)(=O)N(c2cccc(/C(=C/C(=O)NO)c3cccnc3)c2)C(C)C)cc1` [Compound 114, Z-3-[3-[N-(4-Methoxybenzenesulfonyl)-N-isopropylamino]phenyl]-3-(3-pyridyl)propenohydroxamic acid] it is 195 to 197 °C; for `CCCN(c1cccc(/C(=C\C(=O)NO)c2cccnc2)c1)S(=O)(=O)c1ccc(OC)cc1` [Compound 115, E-3-[3-[N-(4-Methoxybenzenesulfonyl)-N-propylamino]phenyl]-3-(3-pyridyl)propenohydroxamic Acid] it is 151 to 153 °C.
